Experimental data: US11684606B2, “Methods of treating generalized pustular psoriasis with an antagonist of CCR6 or CXCR2” (CHEMOCENTRYX, INC., priority 2018, dated 2023)
pIC50: −log10 of the molar value. Converted amounts (≈) assume the structure as drawn. “Also recorded” adds a separate entry of the source.

Columns and labels:
mCCR6 = target: T1, mCCR6 (Mus musculus, UniProt O54689); test: In vitro inhibition of chemotaxis, mCCR6-transfected BaF3 cells to mCCL20; assay type: cell-based; settings: in 100% serum
T1 construct: expressed in transfected cells; host or cells: BaF3 cells
T1 sequence (O54689 1-367): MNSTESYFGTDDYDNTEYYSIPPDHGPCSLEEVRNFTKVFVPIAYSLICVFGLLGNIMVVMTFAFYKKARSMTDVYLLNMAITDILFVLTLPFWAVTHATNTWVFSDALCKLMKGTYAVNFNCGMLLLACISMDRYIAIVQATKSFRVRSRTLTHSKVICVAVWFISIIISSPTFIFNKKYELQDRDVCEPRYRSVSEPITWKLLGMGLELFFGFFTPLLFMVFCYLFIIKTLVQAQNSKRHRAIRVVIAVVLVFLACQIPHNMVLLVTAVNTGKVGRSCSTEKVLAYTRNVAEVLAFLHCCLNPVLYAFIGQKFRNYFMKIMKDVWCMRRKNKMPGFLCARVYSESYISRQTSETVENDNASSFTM
Method: (§1) For in vitro determination of chemokine receptor inhibitor activity, Compound 1.136 was dissolved in DMSO to generate a stock concentration of 10 mM that was further diluted in chemotaxis migration buffer (HBSS, 1% BSA, 1% HEPES) to create a 10-point inhibitor gradient ranging from 100 nM-0.01 nM. Migration assay was then run in 100% mouse serum in response to rmCCL20 for CCR6 activity or rmCXCL1 for CXCR2 activity using ChemoTx plates (Neuroprobe, Gaithersburg Md.) and assessed by fluorescence staining of migrated cells with CyQuant (Thermo Fisher).

mCXCR2 = target: T2, mCXCR2 (Mus musculus, UniProt P35343); test: In vitro inhibition of chemotaxis, mouse bone marrow cells to mCXCL1; assay type: cell-based; settings: in 100% serum
T2 construct: endogenous in cells; host or cells: mouse bone marrow cells (from the earlier reading's assay name)
T2 sequence (P35343 1-359): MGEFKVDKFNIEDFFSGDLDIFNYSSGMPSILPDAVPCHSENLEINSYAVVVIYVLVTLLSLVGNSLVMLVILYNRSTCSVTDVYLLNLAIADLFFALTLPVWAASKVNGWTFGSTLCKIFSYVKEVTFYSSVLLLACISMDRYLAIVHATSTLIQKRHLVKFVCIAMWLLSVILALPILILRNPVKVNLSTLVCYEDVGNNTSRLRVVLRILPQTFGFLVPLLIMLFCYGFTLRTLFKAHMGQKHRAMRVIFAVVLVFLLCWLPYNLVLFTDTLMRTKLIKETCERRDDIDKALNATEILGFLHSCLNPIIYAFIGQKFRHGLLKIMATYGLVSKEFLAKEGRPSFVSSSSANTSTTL
Method: as §1

mCCR1 = target: T3, mCCR1 (Mus musculus, UniProt P51675); test: Chemotaxis of mouse WEHI-274.1 cells to mCCL3; assay type: cell-based; settings: in serum; unit inferred
T3 construct: endogenous in cells; host or cells: mouse WEHI-274.1 cells (from the earlier reading's assay name)
T3 sequence (P51675 1-355): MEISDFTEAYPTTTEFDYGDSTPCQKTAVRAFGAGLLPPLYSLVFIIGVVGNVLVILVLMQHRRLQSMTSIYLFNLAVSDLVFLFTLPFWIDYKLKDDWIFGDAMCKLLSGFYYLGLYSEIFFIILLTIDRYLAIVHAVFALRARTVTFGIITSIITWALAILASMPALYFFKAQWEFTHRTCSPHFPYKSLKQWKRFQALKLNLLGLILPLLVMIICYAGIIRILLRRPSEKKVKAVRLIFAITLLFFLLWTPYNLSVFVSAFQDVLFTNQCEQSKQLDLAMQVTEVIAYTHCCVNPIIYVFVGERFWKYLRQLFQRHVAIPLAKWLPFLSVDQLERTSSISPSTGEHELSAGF

mCCR2 = target: T4, mCCR2 (Mus musculus, UniProt P51683); test: Chemotaxis of mouse bone marrow cells to mCCL2; assay type: cell-based; settings: in serum; unit inferred
T4 construct: endogenous in cells; host or cells: mouse bone marrow cells (from the earlier reading's assay name)
T4 sequence (P51683 whole entry): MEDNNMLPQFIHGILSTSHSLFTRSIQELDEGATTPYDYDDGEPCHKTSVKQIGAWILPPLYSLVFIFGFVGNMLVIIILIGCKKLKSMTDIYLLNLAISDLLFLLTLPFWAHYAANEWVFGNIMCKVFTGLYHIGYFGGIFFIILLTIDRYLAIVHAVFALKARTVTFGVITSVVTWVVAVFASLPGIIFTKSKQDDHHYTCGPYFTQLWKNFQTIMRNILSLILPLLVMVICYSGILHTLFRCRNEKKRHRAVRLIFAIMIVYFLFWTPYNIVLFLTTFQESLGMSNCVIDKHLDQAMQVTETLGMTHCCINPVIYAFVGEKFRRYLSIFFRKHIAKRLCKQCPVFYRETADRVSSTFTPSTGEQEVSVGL

mCCR5 = target: T5, mCCR5 (Mus musculus, UniProt P51682); test: Chemotaxis of mCCR5-transfected BaF3 cells to mCCL5; assay type: cell-based; settings: in serum; unit inferred
T5 construct: expressed in transfected cells; host or cells: BaF3 cells (from the earlier reading's assay name)
T5 sequence (P51682 whole entry): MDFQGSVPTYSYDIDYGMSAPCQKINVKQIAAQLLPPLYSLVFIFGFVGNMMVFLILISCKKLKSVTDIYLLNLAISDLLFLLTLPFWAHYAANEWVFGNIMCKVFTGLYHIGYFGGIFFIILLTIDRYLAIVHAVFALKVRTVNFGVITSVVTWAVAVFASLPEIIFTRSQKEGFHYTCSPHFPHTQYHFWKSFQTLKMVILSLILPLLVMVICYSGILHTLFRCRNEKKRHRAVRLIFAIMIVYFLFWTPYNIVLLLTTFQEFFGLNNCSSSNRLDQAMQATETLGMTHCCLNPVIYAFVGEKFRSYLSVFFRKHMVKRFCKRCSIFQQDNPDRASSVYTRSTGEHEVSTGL

[1] = tested on: IL-36α-injected ears of Balb/c mice; test: Mouse model of IL-36-induced ear thickening (GPP model); assay type: in vivo
Method: For in vivo dosing, mice were dosed subcutaneously with Compound 1.136 once daily (s.c. q.d. in 1% HPMC) at 90 mg/kg unless stated otherwise, starting at day 0 of a study. The in vivo dose was predicted based on in vitro potency and the pharmacokinetic response to a single dose in mice. The minimum antagonist concentration (at trough) to fully cover a gradient-sensing chemoattractant receptor has been determined to correspond with the IC90 concentration (Schall, T. J., and A. E. Proudfoot. 2011. Overcoming hurdles in developing successful drugs targeting chemokine receptors. Nat Rev Immunol 11: 355-363).
Mouse model of IL-36-induced ear thickening. The right ear of 8-week old Balb/c mice received intradermal injections of recombinant murine IL-36α (150 μg per mouse formulated in PBS; BioLegend) every day for 5 days. Intradermal injections of PBS were given to the left ear as a control. Ear thickness was measured prior to start of study and each day thoughout the study using a digital micrometer. The imiquimod model of psoriasiform dermatitis was performed as previously described (Campbell Jet al. J Immunol. 2017; 199(9):3129-36. van der Fits et al. J Immunol 2009; 182(9):5836-45). Briefly, 5% Imiquimod (Fougera®) was applied daily to the shaved and depilated backs of Balb/c mice for up to 4 days. Control mice were treated with an application of Vaseline. Erythema, desquamation, and skin thickening were scored independently on a scale from 0 to 4 where 0=no disease; 1=slight disease; 2=moderate disease; 3=marked disease; 4=very marked disease (Campbell J et al. J Immunol. 2017; 199(9):3129-36. van der Fits et al. J Immunol 2009; 182(9):5836-45). Skin from the backs of mice was excised at the end of the study and processed for flow cytometry analysis,
Mouse anti-IL-17RA. (R&D Systems) was dosed as a positive control at 200-500 μg per mouse, i.p., q.d.

## CCC(C)(C)[C@@H](Nc1c(Nc2c(F)ccc3c2C(=O)N[C@H]3C)c(=O)c1=O)c1ccc(C)o1 [Compound 1.136]
mCCR6; BaF3, read-out: IC90 for CCR6 inhibition
  IC90: 0.045 µg/mL (≈ 0.102 µM)
mCCR6; read-out: IC50 on mouse CCR6, in vitro inhibition of chemotaxis
  pIC50: 8.00
mCXCR2; read-out: IC50 on mouse CXCR2, in vitro inhibition of chemotaxis
  pIC50: 7.70
mCXCR2; read-out: IC90 for CXCR2 inhibition
  IC90: 0.145 µg/mL (≈ 0.33 µM)
mCCR1
  pIC50: < 5.00
mCCR2
  pIC50: < 5.00
mCCR5
  pIC50: < 5.00
[1]; 90 mg/kg Compound 1.136 vs saturating dose of anti-IL-17RA MAb (500 μg per mouse per day), Mann-Whitney
  Effectiveness at reducing ear swelling, Compound 1.136 compared with α-IL-17RA: significantly more effective than α-IL-17RA
[1]; Balb/c mice, daily intradermal IL-36α, Compound 1.136 s.c. once daily
  Time course of the effect on ear thickness: appreciable after the second day of treatment
[1]; Balb/c mice, daily intradermal IL-36α, ear thickness after 4 days, Compound 1.136 30-90 mg/kg s.c. q.d., anti-IL-17RA 200 or 500 μg per mouse IP daily
  IL-36-induced ear thickening / ear swelling: dose-dependent decreases in IL-36-induced ear thickening; also recorded: ameliorates inflammatory swelling of IL-36α-injected ears
